Earlier results on three compounds are cited in patent US10092580B2, “Controlled-release otic structure modulating and innate immune system modulating compositions and methods for the treatment of otic disorders” (OTONOMY, INC., priority 2008, dated 2018).

For series [1] the following is noted: minute concentrations (e.g., 0.05%).
The conditions of series [2]: administered by IV.
The subject of the next series is V2-R. The note with it: infusion into the scala tympani.

With `[H]/N=C(\N/C(=N/[H])NCCCCCCNC(=N)NC(=N)Nc1ccc(Cl)cc1)Nc1ccc(Cl)cc1` [chlorhexidene], the ototoxicity entry in series [1] was “highly ototoxic”.

Regarding `CCN(CC)CC(=O)Nc1c(C)cccc1C` [Lidocaine], the “sufferers in whom the noise associated with tinnitus is reduced or eliminated” value in series [2] is recorded as 60-80%.

On to `Cc1ccccc1C(=O)Nc1ccc(C(=O)N2CCCC(N(C)C)c3ccccc32)cc1` (stereo not drawn) [OPC-31260], for which the “Meniere's disease symptoms” value with V2-R was “marked reduction”.
